Assay results reported in ChEMBL document CHEMBL1201862, “PubChem BioAssay data set” (2004).
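Tested at 5 concentrations; 48 h exposure; 96-well plates; endpoints linearly interpolated, else capped at highest concentration. GI50: concentration for 50% inhibition of growth.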 Active and inactive are the calls of the source. Cut-off read from the data, not from the text of the source: active = GI50 up to about 1.1 µM and inactive = higher.

Assays:
Experiment in all cases: inhibition of tumour cell growth, NCI panel, 48 h
MOLT-4 = test system: MOLT-4
HCT-15 = test system: HCT-15
DMS-273 = test system: DMS-273
RXF 393 = test system: RXF 393
SF-295 = test system: SF-295
SF-268 = test system: SF-268
COLO 205 = test system: COLO 205
SNB-19 = test system: SNB-19
M19-MEL = test system: M19-MEL
LOX IMVI = test system: LOX IMVI
SN12C = test system: SN12C
HT-29 = test system: HT-29
EKVX = test system: EKVX
KM12 = test system: KM12
UACC-257 = test system: UACC-257
U-251 = test system: U-251
IGROV-1 = test system: IGROV-1
SNB-78 = test system: SNB-78
A549 = test system: A549
CCRF-CEM = test system: CCRF-CEM
NCI-H226 = test system: NCI-H226
786-0 = test system: 786-0
TK-10 = test system: TK-10
OVCAR-8 = test system: OVCAR-8
SR = test system: SR
NCI-H23 = test system: NCI-H23
KM-20L2 = test system: KM-20L2
HCC 2998 = test system: HCC 2998
K562 = test system: K562
LXFL 529 = test system: LXFL 529
SW-620 = test system: SW-620
OVCAR-4 = test system: OVCAR-4
NCI-H460 = test system: NCI-H460
XF498 = test system: XF498
DMS-114 = test system: DMS-114
SK-MEL-5 = test system: SK-MEL-5
DLD-1 = test system: DLD-1
OVCAR-3 = test system: OVCAR-3
UACC-62 = test system: UACC-62
M14 = test system: M14
SF-539 = test system: SF-539
ACHN = test system: ACHN
UO-31 = test system: UO-31
SK-MEL-28 = test system: SK-MEL-28
OVCAR-5 = test system: OVCAR-5
RPMI-8226 = test system: RPMI-8226
HOP-62 = test system: HOP-62
HL-60 = test system: HL-60
SNB-75 = test system: SNB-75
SK-OV-3 = test system: SK-OV-3
HCT-116 = test system: HCT-116
HOP-18 = test system: HOP-18
HOP-92 = test system: HOP-92
NCI-H522 = test system: NCI-H522
A498 = test system: A498
Malme-3M = test system: Malme-3M
SK-MEL-2 = test system: SK-MEL-2

CC(C)NCCNC(=O)c1ccccc1Nc1c(Cl)cccc1Cl
GI50 (MOLT-4): 8.69 µM (inactive)
GI50 (HCT-15): 13 µM
GI50 (DMS-273): 13.2 µM (inactive)
GI50 (RXF 393): 5.08 µM (inactive)
GI50 (SF-295): 15.2 µM (inactive)
GI50 (SF-268): 18.1 µM (inactive)
GI50 (COLO 205): 11.6 µM (inactive)
GI50 (SNB-19): 15.3 µM (inactive)
GI50 (M19-MEL): 8.38 µM (inactive)
GI50 (LOX IMVI): 7.24 µM (inactive)
GI50 (SN12C): 13.2 µM (inactive)
GI50 (HT-29): 4.71 µM (inactive)
GI50 (EKVX): 13.6 µM (inactive)
GI50 (KM12): 16.9 µM (inactive)
GI50 (UACC-257): 10.3 µM (inactive)
GI50 (U-251): 4.65 µM (inactive)
GI50 (IGROV-1): 16 µM (inactive)
GI50 (SNB-78): 14.6 µM (inactive)
GI50 (A549): 17.3 µM (inactive)
GI50 (CCRF-CEM): 10.5 µM (inactive)
GI50 (NCI-H226): 13.5 µM (inactive)
GI50 (786-0): 4.16 µM (inactive)
GI50 (TK-10): 11.8 µM (inactive)
GI50 (OVCAR-8): 16.6 µM (inactive)
GI50 (SR): 9.06 µM (inactive)
GI50 (NCI-H23): 17.7 µM (inactive)
GI50 (KM-20L2): 2.73 µM (inactive)
GI50 (HCC 2998): 2.84 µM (inactive)
GI50 (K562): 6.95 µM (inactive)
GI50 (LXFL 529): 16.9 µM (inactive)
GI50 (SW-620): 15.5 µM (inactive)
GI50 (OVCAR-4): 14.4 µM (inactive)
GI50 (NCI-H460): 3.29 µM (inactive)
GI50 (XF498): 2.92 µM (inactive)
GI50 (DMS-114): 10.9 µM (inactive)
GI50 (SK-MEL-5): 5.04 µM (inactive)
GI50 (DLD-1): 13 µM (inactive)
GI50 (OVCAR-3): 12.6 µM (inactive)
GI50 (UACC-62): 15.8 µM (inactive)
GI50 (M14): 11.5 µM (inactive)
GI50 (SF-539): 15.8 µM (inactive)
GI50 (ACHN): 17.4 µM (inactive)
GI50 (UO-31): 10.1 µM (inactive)
GI50 (SK-MEL-28): 14.4 µM (inactive)
GI50 (OVCAR-5): 7.38 µM (inactive)
GI50 (RPMI-8226): 3.81 µM (inactive)
GI50 (HOP-62): 11.6 µM (inactive)
GI50 (HL-60): 8.71 µM (inactive)
GI50 (SNB-75): 4.63 µM (inactive)
GI50 (SK-OV-3): 14.8 µM (inactive)
GI50 (HCT-116): 11.3 µM (inactive)

O=c1nc(NC(c2ccccc2)(c2ccccc2)c2ccccc2)ccn1CCO
GI50 (MOLT-4): 29.9 µM (inactive)
GI50 (HCT-15): 63.5 µM
GI50 (RXF 393): 6.52 µM (inactive)
GI50 (SF-295): 61.1 µM (inactive)
GI50 (SF-268): 66.4 µM (inactive)
GI50 (COLO 205): > 100 µM (inactive)
GI50 (SNB-19): > 100 µM (inactive)
GI50 (LOX IMVI): 75.9 µM (inactive)
GI50 (SN12C): 88.7 µM (inactive)
GI50 (HOP-18): > 100 µM (inactive)
GI50 (HT-29): 60 µM (inactive)
GI50 (EKVX): 81.8 µM (inactive)
GI50 (KM12): 60.3 µM (inactive)
GI50 (UACC-257): > 100 µM (inactive)
GI50 (U-251): > 100 µM (inactive)
GI50 (IGROV-1): > 100 µM (inactive)
GI50 (SNB-78): > 100 µM (inactive)
GI50 (A549): 41.1 µM (inactive)
GI50 (HOP-92): 41.4 µM (inactive)
GI50 (NCI-H226): > 100 µM (inactive)
GI50 (NCI-H522): 51.5 µM (inactive)
GI50 (A498): > 100 µM (inactive)
GI50 (786-0): > 100 µM (inactive)
GI50 (TK-10): > 100 µM (inactive)
GI50 (OVCAR-8): > 100 µM (inactive)
GI50 (SR): 36.3 µM (inactive)
GI50 (NCI-H23): > 100 µM (inactive)
GI50 (KM-20L2): > 100 µM (inactive)
GI50 (HCC 2998): > 100 µM (inactive)
GI50 (Malme-3M): > 100 µM (inactive)
GI50 (K562): 58.7 µM (inactive)
GI50 (SK-MEL-2): > 100 µM (inactive)
GI50 (LXFL 529): 63.4 µM (inactive)
GI50 (SW-620): > 100 µM (inactive)
GI50 (OVCAR-4): 63.2 µM (inactive)
GI50 (NCI-H460): 57 µM (inactive)
GI50 (DMS-114): 52.7 µM (inactive)
GI50 (DLD-1): 39.6 µM (inactive)
GI50 (OVCAR-3): 40.2 µM (inactive)
GI50 (SF-539): > 100 µM (inactive)
GI50 (ACHN): 48.5 µM (inactive)
GI50 (UO-31): > 100 µM (inactive)
GI50 (SK-MEL-28): > 100 µM (inactive)
GI50 (OVCAR-5): > 100 µM (inactive)
GI50 (RPMI-8226): 49.8 µM (inactive)
GI50 (HOP-62): > 100 µM (inactive)
GI50 (HL-60): 41 µM (inactive)
GI50 (SNB-75): 40.8 µM (inactive)
GI50 (HCT-116): 61.1 µM (inactive)
